Read-outs that look alike come from different tables or passages of the source. Where no end group is shown, it is not given here.
Key:
[1] = system: P. aeruginosa (ATCC 27883); experiment: MIC, standard microtiter dilution (CLSI); assay type: cell-based, Pseudomonas aeruginosa; settings: broth microdilution (CLSI), CAMHB, 37 °C, 24 h
Method: (§1) Description of the characteristics and growth conditions of various bacterial strains used in the study are provided in the Supporting Information (Table S3). Antibacterial susceptibility testing was carried out using a standard microtiter dilution method recommended by the clinical and laboratory standard institute (CLSI) and measured as a minimum inhibitory concentration (MIC), the lowest peptide concentration that inhibited bacterial growth. Briefly, the overnight grown cultures in the recommended broth for each bacterial strain were diluted in cation-adjusted Mueller Hinton Broth (CAMHB) to give an inoculum of 10^6 colony-forming units (CFU)/mL. A 2-fold serially diluted test peptide solution (100 μL) was added to the microtiter plates. After adding bacterial suspension (100 μL), the plates were incubated at 37 °C for 24 h, and the MICs were determined. The same protocol was used to determine the MICs in the presence of salts and serum except using the media supplemented with various cationic salts (150 mM NaCl, 4.5 mM KCl, 6 mM NH4Cl, 1 mM MgCl2, and 2 mM CaCl2) or 25% FBS. The data was acquired from three independent assays performed in triplicate.
(§2) The bacterial strains employed in this study were obtained from the American Type Culture Collection (ATCC). Each strain was propagated as recommended by the ATCC, and each strain was stored as a frozen glycerol stock at -80°C. A bacterial colony was grown on the appropriate agar as indicated in Table S1 and was used to inoculate the appropriate broth. The culture was incubated at the appropriate conditions, as mentioned in Table S1. Following the incubation, the culture was diluted to an optical density 625 nm (OD625) of 0.1 in cation adjusted Mueller Hinton Broth (CAMHB), which is equivalent to 1 × 10^8 CFU/mL. The culture was further diluted to 1 × 10^6 CFU/mL, which was used to conduct the MIC determination assay. For the S. pneumoniae strains, CAMHB + 2.5% lysed horse blood was required for the assay. The strains with their […]
(§3) Table S3. Description of the characteristics and growth conditions of various bacterial strains

[2] = system: K. pneumoniae (ATCCBAA-1705); experiment: MIC, standard microtiter dilution (CLSI); assay type: cell-based, Klebsiella pneumoniae; settings: broth microdilution (CLSI), CAMHB, 37 °C, 24 h
Method: as §1, §2, §3

S. aureus (ATCC 29213) = experiment: MIC, standard microtiter dilution (CLSI); assay type: cell-based; settings: for MIC, S. aureus (ATCC 29213): broth microdilution (CLSI), CAMHB, 37 °C, 24 h
Method: as §1, §2, §3

[3] = system: human red blood cells (hRBCs); experiment: Hemolytic assay; assay type: cell-based; settings: 2 h, 37 °C
Method: The hemolytic activity of all peptides (1a–8d) was determined using hRBC. The assay was conducted by adding 75 μL of 2-fold serially diluted peptides to 75 μL of hRBC suspension (4% in PBS). The plates were incubated for 2 h at 37 °C without agitation. In order to determine the hemolysis at each tested concentration of peptides, the plate was centrifuged, and 100 μL of the supernatant was transferred to another 96-well plate to determine hemoglobin release spectrophotometrically at 567 nm. Percent hemolysis was calculated by the following formula [drawing 1] where A represents the absorbance of the peptide sample at 567 nm and A0 and At represent zero percent and 100% hemolysis determined in phosphate buffer saline and 1% Triton X-100, respectively.

MRSA (ATCC BAA-1556) = settings: broth microdilution (CLSI), CAMHB, 37 °C, 24 h
Method: as §1, §2, §3

E. coli (ATCC 25922) = settings: broth microdilution (CLSI), CAMHB, 37 °C, 24 h
Method: as §1, §2, §3

[4] = 10^6 CFU/mL, highest MIC of three independent experiments in triplicate
[5] = hRBC suspension 4% in PBS, hemoglobin release at 567 nm, 1% Triton X-100 = 100%
[6] = value in parentheses (μM), hRBC 4% in PBS, 567 nm

Substance | MIC, P. aeruginosa (ATCC 27883) [1, 4] [µg/mL] | MIC, P. aeruginosa (ATCC 27883) ([1]; value in parentheses (μM)) [µM] | MIC, K. pneumoniae (ATCCBAA-1705) [2, 4] [µg/mL] | MIC, K. pneumoniae (ATCCBAA-1705) ([2]; value in parentheses (μM)) [µM] | MIC, S. aureus (ATCC 29213) (S. aureus (ATCC 29213); [4]) [µg/mL] | MIC, S. aureus (ATCC 29213) (S. aureus (ATCC 29213); value in parentheses (μM)) [µM] | HC50 (concentration at which 50% hemolysis was observed) [3, 5] [µg/mL] | HC50 (concentration at which 50% hemolysis was observed) [3, 6] [µM] | MIC, MRSA (ATCC BAA-1556) (MRSA (ATCC BAA-1556); [4]) [µg/mL] | MIC, MRSA (ATCC BAA-1556) (MRSA (ATCC BAA-1556); value in parentheses (μM)) [µM] | MIC, E. coli (ATCC 25922) (E. coli (ATCC 25922); [4]) [µg/mL] | MIC, E. coli (ATCC 25922) (E. coli (ATCC 25922); value in parentheses (μM)) [µM] | MIC against S. aureus (S. aureus (ATCC 29213)) [µg/mL]
RWARRWWR-NH2 [2c] | > 100 | > 78.65 | > 100 | > 78.65 | > 100 | > 78.65 | > 500 | > 393.23 | > 100 | > 78.65 | > 100 | > 78.65 | –
RWWRAAWRR-NH2 [3d] | > 100 | > 74.48 | > 100 | > 74.48 | > 100 | > 74.48 | > 500 | > 372.42 | > 100 | > 74.48 | > 100 | > 74.48 | –
RWARRAWRAW-NH2 [4e] | > 100 | > 70.74 | > 100 | > 70.74 | > 100 | > 70.74 | > 500 | > 353.69 | > 100 | > 70.74 | > 100 | > 70.74 | –
RWWRRAWRAA-NH2 [4c] | > 100 | > 70.74 | > 100 | > 70.74 | > 100 | > 70.74 | > 500 | > 353.69 | > 100 | > 70.74 | > 100 | > 70.74 | –
ARRWWRRW-NH2 [2e] | > 100 | > 78.65 | > 100 | > 78.65 | 100 | 78.65 | > 500 | > 393.23 | 100 | > 78.65 | > 100 | > 78.65 | –
RWARRWARWWR-NH2 [5b] | 100 | 59.35 | > 100 | > 59.35 | 50 | 29.67 | > 500 | > 296.74 | 100 | 59.35 | 100 | 59.35 | 50
RWIRRWIRWWR-NH2 [5c] | 50 | 28.26 | 100 | 56.52 | 50 | 28.26 | > 500 | > 282.62 | 50 | 28.26 | 100 | 56.52 | –
H-AAWRRWWRRA-NH2 [4h] | > 100 | > 70.74 | > 100 | > 70.74 | > 100 | > 70.74 | > 500 | > 353.69 | > 100 | > 70.74 | > 100 | > 70.74 | –
RAWRRWWRAA-NH2 [4b] | > 100 | > 70.74 | > 100 | > 70.74 | > 100 | > 70.74 | > 500 | > 353.69 | > 100 | > 70.74 | > 100 | > 70.74 | –
RRWRRWW-NH2 [1d] | > 100 | > 83.30 | > 100 | > 83.30 | 100 | 83.30 | > 500 | > 416.52 | 100 | 83.30 | > 100 | > 83.30 | –
